Experimental data: US7501430B2 (ArQule, Inc., priority 2006, dated 2009)
Where two headings read alike, the source gives them in different places.

Target: T1, mutant B-RAF (Homo sapiens, UniProt P15056, V600E)
T1 construct: purchased Upstate (Charlottesville, Va.)
Experiment: RAF biochemical assay (MEK-1 phosphorylation, anti-phospho MEK1/2 detection)
Outline: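 Detection is by ELISA: after a 30 min room-temperature reaction, plate-captured GST-MEK-1 is probed with anti-phospho MEK1/2, then an AP-tagged secondary antibody with fluorescent Attophos read-out.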

[1] = read-out: Mutant B-RAF IC50 (uM) or % inhibition

T1 sequence (P15056 whole entry V600E): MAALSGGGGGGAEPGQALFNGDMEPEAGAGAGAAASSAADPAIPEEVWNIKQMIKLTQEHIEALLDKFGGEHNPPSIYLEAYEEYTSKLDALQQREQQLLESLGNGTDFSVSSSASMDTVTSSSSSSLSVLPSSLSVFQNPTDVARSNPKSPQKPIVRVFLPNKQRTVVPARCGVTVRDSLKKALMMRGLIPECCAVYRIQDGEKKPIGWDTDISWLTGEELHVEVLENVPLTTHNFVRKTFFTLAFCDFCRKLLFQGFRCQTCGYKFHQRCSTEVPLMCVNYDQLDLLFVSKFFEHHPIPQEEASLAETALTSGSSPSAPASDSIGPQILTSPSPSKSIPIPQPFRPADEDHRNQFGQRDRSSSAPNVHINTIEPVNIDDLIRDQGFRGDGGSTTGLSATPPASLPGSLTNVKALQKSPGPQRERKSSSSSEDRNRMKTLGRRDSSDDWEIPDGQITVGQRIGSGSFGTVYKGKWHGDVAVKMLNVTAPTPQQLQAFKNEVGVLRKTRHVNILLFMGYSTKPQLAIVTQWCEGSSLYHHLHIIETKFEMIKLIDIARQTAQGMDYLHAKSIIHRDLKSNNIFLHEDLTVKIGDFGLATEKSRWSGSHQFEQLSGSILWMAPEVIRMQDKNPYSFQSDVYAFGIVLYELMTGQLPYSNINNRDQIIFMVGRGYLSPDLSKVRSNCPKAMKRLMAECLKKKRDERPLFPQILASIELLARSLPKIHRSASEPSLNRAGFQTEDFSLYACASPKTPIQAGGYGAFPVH

Row | Compound | IC50 (read-out: Mutant B-RAF IC50) [µM] | IC50 [1] [µM]
1 | Cn1ccc(S(=O)(=O)N2CCC[C@@H](Nc3nccc(-c4c(-c5cccc(O)c5)nc5sccn45)n3)C2)n1 [Example 376, 3-{5-[2-({(3R)-1-[(1-methyl-1H-pyrazol-3-yl)sulfonyl]piperidin-3-yl}amino)pyrimidin-4-yl]imidazo[2,1-b][1,3]thiazol-6-yl}phenol] | 0.001 | 
2 | NS(=O)(=O)Oc1cccc(-c2nc3sccn3c2-c2ccnc(N[C@@H]3CCCN(S(=O)(=O)c4ccc(Cl)cc4)C3)n2)c1 [Example 377, 3-{5-[2-({(3R)-1-{(4-chlorophenyl)sulfonyl]piperidin-3-yl}amino)pyrimidin-4-yl]imidazo[2,1-b][1,3]thiazol-6-yl}phenyl sulfamate] | 0.085 | 
3 | O=S(=O)(c1ccc(Cl)cc1)N1CCC[C@@H](Nc2nccc(-c3c(-c4ccc(CO)cc4)nc4sccn34)n2)C1 [Example 378, (4-{5-[2-({(3R)-1-[(4-chlorophenyl)sulfonyl]piperidin-3-yl}amino)pyrimidin-4-yl]imidazo[2,1-b][1,3]thiazol-6-yl}phenyl)methanol] | 2.26 | 
4 | NC(=O)c1ccc(-c2nc3sccn3c2-c2ccnc(N[C@@H]3CCCN(S(=O)(=O)c4ccc(Cl)cc4)C3)n2)cc1 [Example 379, 4-{5-[2-({(3R)-1-[(4-chlorophenyl)sulfonyl]piperidin-3-yl}amino)pyrimidin-4-yl]imidazo[2,1-b][1,3]thiazol-6-yl}benzamide] | 2.67 | 
5 | NS(=O)(=O)Oc1cccc(-c2nc3occn3c2-c2ccnc(N[C@@H]3CCCN(S(=O)(=O)c4ccc(Cl)cc4)C3)n2)c1 [Example 380, 3-{5-[2-({(3R)-1-[(4-chlorophenyl)sulfonyl]piperidin-3-yl}amino)pyrimidin-4-yl]imidazo[2,1-b][1,3]oxazol-6-yl}phenyl sulfamate] | 1.59 | 
6 | O=S(=O)(c1nnc[nH]1)N1CCC[C@@H](Nc2nccc(-c3c(-c4cccc(O)c4)nc4sccn34)n2)C1 [Example 381, 3-[5-(2-{[(3R)-1-(4H-1,2,4-tri-azol-3-ylsulfonyl)piperidin-3-yl]amino}pyrimidin-4-yl)imidazo[2,1-b][1,3]thiazol-6-yl]phenol] | 0.015 | 
7 | O=C(O)c1cccc(-c2nc3sccn3c2-c2ccnc(N[C@@H]3CCCN(S(=O)(=O)c4ccc(Cl)cc4)C3)n2)c1 [Example 382, 3-{5-[2-({(3R)-1-[(4-chlorophenyl)sulfonyl]piperidin-3-yl}amino)pyrimidin-4-yl]imidazo[2,1-b][1,3]thiazol-6-yl}benzoic acid] | 1.19 | 
8 | CC(=O)c1cccc(-c2nc3sccn3c2-c2ccnc(N[C@@H]3CCCN(S(=O)(=O)c4ccc(Cl)cc4)C3)n2)c1 [Example 384, 1-(3-{5-[2-({(3R)-1-[(4-chlorophenyl)sulfonyl]piperidin-3-yl)amino)pyrimidin-4-yl]imidazo[2,1-b][1,3]thiazol-6-yl}phenyl)ethanone] | 1.3 | 
9 | O=Cc1ccc(-c2nc3sccn3c2-c2ccnc(N[C@@H]3CCCN(S(=O)(=O)c4ccc(Cl)cc4)C3)n2)cc1 [Example 385, 4-{5-[2-({(3R)-1-[(4-chlorophenyl)sulfonyl]piperidin-3-yl}amino)pyrimidin-4-yl]imidazo[2,1-b][1,3]thiazol-6-yl}benzaldehyde] | 0.876 | 
10 | NC(=O)Oc1cccc(-c2nc3occn3c2-c2ccnc(N[C@@H]3CCCN(S(=O)(=O)c4ccc(Cl)cc4)C3)n2)c1 [Example 386, 3-{5-[2-({(3R)-1-[(4-chlorophenyl)sulfonyl]piperidin-3-yl}amino)pyrimidin-4-yl]imidazo[2,1-b][1,3]oxazol-6-yl}phenyl carbamate] | 0.109 | 
11 | CCCOC(=O)N1CCC(Nc2nccc(-c3c(-c4cccc(O)c4)nc4sccn34)n2)CC1 [Example 387, propyl 4-({4-[6-(3-hydroxyphenyl)imidazo[2,1-b][1,3]thiazol-5-yl]pyrimidin-2-yl}amino)piperidine-1-carboxylate] | > 3 | 
12 | O=S(=O)(c1cccs1)N1CCC[C@@H](Nc2nccc(-c3c(-c4cccc(O)c4)nc4occn34)n2)C1 [Example 388, 3-[5-(2-{[(3R)-1-(2-thienylsulfonyl)piperidin-3-yl]amino}pyrimidin-4-yl)imidazo[2,1-b][1,3]oxazol-6-yl]phenol] | 0.009 | 
13 | C/C(=N\O)c1cccc(-c2nc3sccn3c2-c2ccnc(N[C@@H]3CCCN(S(=O)(=O)c4ccc(Cl)cc4)C3)n2)c1 [Example 389, (1E)-1-(3-{5-[2-({(3R)-1-[(4-chlorophenyl)sulfonyl]piperidin-3-yl}amino)pyrimidin-4-yl]imidazo[2,1-b][1,3]thiazol-6-yl}phenyl)ethanone oxime] | 0.034 | 
14 | O=Cc1cccc(-c2nc3sccn3c2-c2ccnc(N[C@@H]3CCCN(S(=O)(=O)c4ccc(Cl)cc4)C3)n2)c1 [Example 390, 3-{5-[2-({(3R)-1-[(4-chlorophenyl)sulfonyl]piperidin-3-yl}amino)pyrimidin-4-yl]imidazo[2,1-b][1,3]thiazol-6-yl}benzaldehyde] | 0.28 | 
15 | O=S(=O)(Cc1ccccc1)N1CCC[C@@H](Nc2nccc(-c3c(-c4cccc(O)c4)nc4occn34)n2)C1 [Example 391, 3-[5-(2-{[(3R)-1-(benzylsulfonyl)piperidin-3-yl]amino}pyrimidin-4-yl)imidazo[2,1-b][1,3]oxazol-6-yl]phenol] | > 3 | 
16 | O=S(=O)(c1ccc(Cl)cc1)N1CCC[C@@H](Nc2nccc(-c3c(-c4ccc(/C=N/O)cc4)nc4sccn34)n2)C1 [Example 392, 4-{5-[2-({(3R)-1-[(4-chlorophenyl)sulfonyl]piperidin-3-yl}amino)pyrimidin-4-yl]imidazo[2,1-b][1,3]thiazol-6-yl}benzaldehyde oxime] | 0.698 | 
17 | CCCS(=O)(=O)N1CCC[C@@H](Nc2nccc(-c3c(-c4cccc(O)c4)nc4occn34)n2)C1 [Example 393, 3-[5-(2-{[(3R)-1-(propylsulfonyl)piperidin-3-yl]amino}pyrimidin-4-yl)imidazo[2,1-b][1,3]oxazol-6-yl]phenol] | 0.33 | 
18 | COC(=O)N1CCC(Nc2nccc(-c3c(-c4cccc(O)c4)nc4sccn34)n2)CC1 [Example 394, methyl 4-({4-[6-(3-hydroxyphenyl)imidazo[2,1-b][1,3]thiazol-5-yl]pyrimidin-2-yl}amino)piperidine-1-carboxylate] | > 3 | 
19 | O=S(=O)(c1ccc(Cl)cc1)N1CCC[C@@H](Nc2nccc(-c3c(-c4cccc(/C=N\O)c4)nc4sccn34)n2)C1 [Example 395, 3-{5-[2-({(3R)-1-[(4-chlorophenyl)sulfonyl]piperidin-3-yl}amino)pyrimidin-4-yl]imidazo[2,1-b][1,3]thiazol-6-yl}benzaldehyde oxime] | 0.018 | 
20 | O=S(=O)(c1ccc(Cl)cc1)N1CCC[C@@H](Nc2nccc(-c3c(-c4cccc(CO)c4)nc4sccn34)n2)C1 [Example 396, (3-{5-[2-({(3R)-1-[(4-chlorophenyl)sulfonyl]piperidin-3-yl}amino)pyrimidin-4-yl]imidazo[2,1-b][1,3]thiazol-6-yl}phenyl)methanol] | 1.6 | 
21 | O=S(=O)(C1CC1)N1CCC[C@@H](Nc2nccc(-c3c(-c4cccc(O)c4)nc4occn34)n2)C1 [Example 397, 3-[5-(2-{[(3R)-1-(cyclopropylsulfonyl)piperidin-3-yl]amino}pyrimidin-4-yl)imidazo[2,1-b][1,3]oxazol-6-yl]phenol] |  | 2.3
22 | O=S(=O)(c1ccccc1)N1CCC[C@@H](Nc2nccc(-c3c(-c4cccc(O)c4)nc4occn34)n2)C1 [Example 398, 3-[5-(2-{[(3R)-1-(phenylsulfonyl)piperidin-3-yl]amino}pyrimidin-4-yl)imidazo[2,1-b][1,3]oxazol-6-yl]phenol] |  | 0.042
23 | O=S(=O)(c1ccsc1)N1CCC[C@@H](Nc2nccc(-c3c(-c4cccc(O)c4)nc4occn34)n2)C1 [Example 399, 3-[5-(2-{[(3R)-1-(3-thienylsulfonyl)piperidin-3-yl]amino}pyrimidin-4-yl)imidazo[2,1-b][1,3]oxazol-6-yl]phenol] |  | > 3
24 | CC(=O)c1ccc(-c2nc3sccn3c2-c2ccnc(N[C@@H]3CCCN(S(=O)(=O)c4ccc(Cl)cc4)C3)n2)cc1 [Example 400, 1-(4-{5-[2-({(3R)-1-[(4-chlorophenyl)sulfonyl]piperidin-3-yl}amino)pyrimidin-4-yl]imidazo[2,1-b][1,3]thiazol-6-yl}phenyl)ethanone] |  | 1.3
